Measured values from patent publication US6569461B1, “Dihydroxy open-acid and salts of HMG-CoA reductase inhibitors” (Merck & Co., Inc., priority 1999, dated 2003).

Key:
[1] = Plasma total and active HMG-CoA reductase inhibitory activity (enzymatic assay) in open, randomized, four-period crossover study with or without itraconazole; details: human, in vivo
Experimental: (§1) Intraduodenal administration was accomplished via a nasoduodenal tube placed under fluoroscopic guidance by an experienced gastroenterologist just prior to dosing and removed following the 1-hr postdose measurements.
(§2) All calculations were based on designated sampling times or actual sampling times when they differed from the designated times by more than 10 minutes.

[2] = human, in vivo
Experimental: as §1, §2

CCC(C)(C)C(=O)O[C@H]1C[C@@H](C)C=C2C=C[C@H](C)[C@H](CC[C@@H](O)C[C@@H](O)CC(=O)O)[C@H]21 [SVA, dihydroxy open acid simvastatin]
AUC, Active Inhibitors [1]: 54.1 ± 28.5 ng eq·hr/mL | Cmax, Active Inhibitors [1]: 5.7 ± 3.0 ng eq/mL | change by itraconazole pretreatment in AUC and Cmax of HMG-CoA reductase inhibitory activity (total or active) ([1]; male): 1.3-1.5 fold | effect of itraconazole on apparent t1/2 values [2]: essentially unchanged | effect of itraconazole measured as the unchanged drug ([2]; male): 1.5 fold
